Assays:
[1] = α-Helicity of VIP by circular dichroism; format: physicochemical
Procedure: (§1) • Lipid:peptide saturation ratio and number of peptide/micelle were determined via fluorescent spectroscopy where 10 μM of VIP was incubuated with varying concentration of SSM or SSMM to achieve lipid:peptide molar ratio ranging from 0 to 40. The data was then fitted into a simple, rectangular hyperbola curve using SigmaPlot® to determine lipid:peptide saturation ratio. The maximum number of peptide molecules that could interact with each micelle was calculated from the aggregation number of lipid monomers per micelle (˜90) for both SSM and SSMM (Ashok B, et al. J Pharm Sci 2004; 93: 2476-2487). • α-helicity was determined by CD using 20 μM of VIP in 5 mM of SSM or SSMM (lipid:VIP ratio of 250:1). The same samples were used for particle size measurement. • Fluorescent anisotropy was conducted using 100 μM of VIP in 4.5 mM of SSM or SSMM (lipid:VIP ratio of 45:1) which is close to the lipid:peptide saturation ratio. The measurements were done using Perkin Elmer luminescence spectrometer LS50B.

[2] = Circulating half life of VIP in vivo; conditions: read-out: Circulating t½ in vivo (converted)
[3] = Fluorescent anisotropy of VIP; format: physicochemical; conditions: 100 μM VIP, […] SSM or SSMM (lipid:VIP 45:1)
Procedure: as §1

[4] = Stability of VIP and VIP-SSM in human serum; conditions: buffer or solvent
Procedure: Since VIP is highly susceptible to enzymatic hydrolysis in serum, we have also tested serum stability of SSM-VIP formulation in a surrogate in vitro system. Briefly, DSPE-PEG2000 (5 mM) was weighed and hydrated (10 mM HEPES buffer, pH 7.4). VIP (5 nmol) was added to preformed SSM and incubated for 2 h at 25° C. to form VIP-SSM. Formulation was then incubated in human serum (25, 50% v/v). Sample aliquots were removed and analyzed on 0, 1, 3, 5 and 7 days following storage at 37° C. These samples were analyzed for the % of intact VIP associated with SSM following separation of unbound VIP from SSM.

CC[C@H](C)[C@H](NC(=O)[C@H](CO)NC(=O)[C@H](CC(N)=O)NC(=O)[C@H](CC(C)C)NC(=O)[C@H](Cc1ccc(O)cc1)NC(=O)[C@H](CCCCN)NC(=O)[C@H](CCCCN)NC(=O)[C@@H](NC(=O)[C@H](C)NC(=O)[C@H](CCSC)NC(=O)[C@H](CCC(N)=O)NC(=O)[C@H](CCCCN)NC(=O)[C@H](CCCNC(=N)N)NC(=O)[C@H](CC(C)C)NC(=O)[C@H](CCCNC(=N)N)NC(=O)[C@@H](NC(=O)[C@H](Cc1ccc(O)cc1)NC(=O)[C@H](CC(N)=O)NC(=O)[C@H](CC(=O)O)NC(=O)[C@@H](NC(=O)[C@H](Cc1ccccc1)NC(=O)[C@@H](NC(=O)[C@H](C)NC(=O)[C@H](CC(=O)O)NC(=O)[C@H](CO)NC(=O)[C@@H](N)Cc1c[nH]cn1)C(C)C)[C@@H](C)O)[C@@H](C)O)C(C)C)C(=O)N[C@@H](CC(C)C)C(=O)N[C@@H](CC(N)=O)C(N)=O [VIP in saline, vasoactive intestinal peptide]
% α-Helix of VIP [1]: 5 ± 1%
half-life [2]: 18 min
Anisotropy [3]: 0.052 ± 0.004
metabolised at 24 h [4]: ~65%
